The text below walks through data of article PMC3883635, “Two Different Conformations in Hepatitis C Virus p7 Protein Account for Proton Transport and Dye Release” (PLoS ONE, 2014).

The assay has as its target T1, HCV-p7 (synthetic p7_1-63) (Hepatitis C virus (isolate H77), UniProt P27958).
T1 construct: mature p7 of the HCV genome polyprotein; synthetic peptide (solid-phase), extra N-terminal Met (residue 0); 63 residues plus 1; in DPhPC membranes
The assay can be described thus: single channel recording in black lipid membrane. As to conditions: DPhPC membranes; 10 µM methanol solution of p7 added; read after five minutes; concentration of HMA not in text. In kind it is biochemical.

Each structure is given as a SMILES string.

T1 sequence (P27958 747-809): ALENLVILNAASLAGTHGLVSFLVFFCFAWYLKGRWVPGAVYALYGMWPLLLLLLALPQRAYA

With `N=C(N)NC(=O)c1nc(Cl)c(N2CCCCCC2)nc1N` [HMA], the channel block entry is on record as “HCV-p7 ion channel activity is blocked by HMA in a full trace of different voltages”.
